# Source: patent publication US9012443B2 (Amgen Inc., priority 2011, dated 2015)
# pIC50: −log10 of the molar value.
# Biological target: Nav 1.7 (Homo sapiens (Human), UniProt Q15858)
# Assay: Nav 1.7 IWQ in vitro assay (IonWorks Quattro population patch-clamp)
# Assay type: cell-based
# Settings: 293 cells stably transfected with Nav 1.7; first part of table; read-out: Nav 1.7 IWQ IC50
# Protocol: Nav 1.7 or Nav 1.5 IWQ In Vitro Assay
# 293 Cells stably transfected with either Nav 1.7 or Nav 1.5 were recorded in population patch-clamp mode with the IonWorks® Quattro automated electrophysiology system in accordance with the manufacturer's specifications (Molecular Devices, LLC, Sunnyvale, Calif.). Sodium channel currents were measured in response to a train of depolarizations that induced successively greater inactivation.
# Cells were then left unclamped for a period of 3 to 8 minutes while a single concentration of test compound was added. Cells were then reclamped and put through the same voltage protocol. Current at the end of the 26th pulse to −20 mV was subtracted from the peak current evoked by the 26th pulse to −20 mV to correct for leak current. Percent block was calculated for each concentration in duplicate, and IC50 curves were fitted to percent block as a function of concentration.
# Nav 1.7, sequence (Q15858 whole entry): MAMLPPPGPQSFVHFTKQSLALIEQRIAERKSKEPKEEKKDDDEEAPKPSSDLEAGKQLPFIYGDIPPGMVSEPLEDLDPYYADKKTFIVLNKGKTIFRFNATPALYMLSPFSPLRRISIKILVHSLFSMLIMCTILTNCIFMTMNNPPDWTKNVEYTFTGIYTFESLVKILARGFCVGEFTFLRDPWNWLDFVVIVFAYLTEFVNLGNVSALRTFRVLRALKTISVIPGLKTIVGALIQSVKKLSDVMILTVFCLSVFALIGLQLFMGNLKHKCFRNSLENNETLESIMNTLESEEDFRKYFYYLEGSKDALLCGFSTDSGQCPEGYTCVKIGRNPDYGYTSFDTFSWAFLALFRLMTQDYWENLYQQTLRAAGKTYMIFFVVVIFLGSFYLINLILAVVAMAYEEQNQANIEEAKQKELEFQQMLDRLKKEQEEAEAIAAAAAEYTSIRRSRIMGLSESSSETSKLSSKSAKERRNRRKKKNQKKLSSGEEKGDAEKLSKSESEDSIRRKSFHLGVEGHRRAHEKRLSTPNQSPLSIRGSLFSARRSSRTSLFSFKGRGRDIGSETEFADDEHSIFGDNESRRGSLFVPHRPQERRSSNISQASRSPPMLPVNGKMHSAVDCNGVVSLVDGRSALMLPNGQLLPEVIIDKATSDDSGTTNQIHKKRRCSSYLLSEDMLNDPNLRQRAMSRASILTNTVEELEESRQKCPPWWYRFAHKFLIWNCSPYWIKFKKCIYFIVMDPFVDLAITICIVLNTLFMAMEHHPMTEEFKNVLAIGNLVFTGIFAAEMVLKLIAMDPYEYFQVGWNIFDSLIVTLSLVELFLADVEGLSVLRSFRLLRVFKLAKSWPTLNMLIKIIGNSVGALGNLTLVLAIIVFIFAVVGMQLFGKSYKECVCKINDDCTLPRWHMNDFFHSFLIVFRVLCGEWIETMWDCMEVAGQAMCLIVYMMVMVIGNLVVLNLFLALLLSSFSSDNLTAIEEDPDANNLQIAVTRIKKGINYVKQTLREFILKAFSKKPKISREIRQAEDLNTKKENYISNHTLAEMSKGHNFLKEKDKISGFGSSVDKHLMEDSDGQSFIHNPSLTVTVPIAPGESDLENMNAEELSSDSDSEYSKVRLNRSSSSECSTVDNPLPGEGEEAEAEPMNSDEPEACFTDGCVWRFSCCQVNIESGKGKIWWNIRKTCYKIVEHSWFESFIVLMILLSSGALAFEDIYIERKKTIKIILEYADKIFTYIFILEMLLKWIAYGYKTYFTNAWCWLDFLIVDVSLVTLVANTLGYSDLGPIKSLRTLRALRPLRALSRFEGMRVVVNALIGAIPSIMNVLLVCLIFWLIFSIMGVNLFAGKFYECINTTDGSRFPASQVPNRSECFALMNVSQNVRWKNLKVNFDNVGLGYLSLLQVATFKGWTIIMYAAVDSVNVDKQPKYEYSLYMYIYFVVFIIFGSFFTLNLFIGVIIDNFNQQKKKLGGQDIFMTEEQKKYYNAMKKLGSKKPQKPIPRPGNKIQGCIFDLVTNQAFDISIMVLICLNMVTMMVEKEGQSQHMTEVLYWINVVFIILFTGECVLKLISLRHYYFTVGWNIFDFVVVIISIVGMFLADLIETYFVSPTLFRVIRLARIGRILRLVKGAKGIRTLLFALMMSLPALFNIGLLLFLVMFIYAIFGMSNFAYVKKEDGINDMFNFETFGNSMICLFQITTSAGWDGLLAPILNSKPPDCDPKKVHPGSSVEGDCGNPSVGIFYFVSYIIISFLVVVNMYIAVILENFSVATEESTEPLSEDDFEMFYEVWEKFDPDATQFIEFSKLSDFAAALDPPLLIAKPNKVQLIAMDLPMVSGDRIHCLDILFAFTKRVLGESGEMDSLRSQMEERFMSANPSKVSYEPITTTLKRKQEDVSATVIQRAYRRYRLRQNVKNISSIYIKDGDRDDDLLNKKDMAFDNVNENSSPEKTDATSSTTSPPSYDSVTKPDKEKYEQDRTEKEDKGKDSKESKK
row,Structure (SMILES),pIC50
1,O=S(=O)(Nc1ncco1)c1ccc2c(-c3ccc(C(F)(F)F)cc3Cl)cccc2c1 [Example 49],5.31
2,"COc1ccc(-c2nccc3cc(S(=O)(=O)Nc4ncns4)ccc23)c(OC)c1 [Example 59, 1-(2,4-DIMETHOXYPHENYL)-N-(1,2,4-THIADIAZOL-5-YL)ISOQUINOLINE-6-SULFONAMIDE]",7.22
3,CC(C)(O)C1CN(c2cccc3cc(S(=O)(=O)Nc4ncns4)ccc23)CCO1 (stereo not shown) [Example 20],5.50
4,"O=S(=O)(Nc1ncns1)c1ccc2c(-c3ccc(Cl)cc3)nccc2c1 [Example 64, 1-(4-CHLOROPHENYL)-N-(1,2,4-THIADIAZOL-5-YL)ISOQUINOLINE-6-SULFONAMIDE]",6.11
5,CCC1CN(c2cccc3cc(S(=O)(=O)Nc4ncns4)ccc23)CCO1 (stereo not shown) [Example 18],6.15
6,O=S(=O)(Nc1nccs1)c1ccc2c(N3CCCC3c3ccccc3)cccc2c1 (stereo not shown) [Example 80],5.92
7,COc1cc(Cl)ccc1-c1cccc2cc(S(=O)(=O)Nc3ccn(CCN(C)C)n3)ccc12 [Example 43],5.31
8,"O=S(=O)(Nc1ccncn1)c1ccc2c(-c3ccc(C(F)(F)F)cc3C3=CCNCC3)nccc2c1 [Example 69, N-(PYRIMIDIN-4-YL)-1-(2-(1,2,3,6-TETRAHYDROPYRIDIN-4-YL)-4-(TRIFLUOROMETHYL)PHENYL)ISOQUINOLINE-6-SULFONAMIDE 2,2,2-TRIFLUOROACETATE]",7.22
9,"COc1cc(C(F)(F)F)ccc1-c1nccc2cc(S(=O)(=O)Nc3ccncn3)ccc12 [Example 67, 1-(2-METHOXY-4-(TRIFLUOROMETHYL)PHENYL)-N-(PYRIMIDIN-4-YL)ISOQUINOLINE-6-SULFONAMIDE]",7.10
10,CC1CN(c2cccc3cc(S(=O)(=O)Nc4ncns4)ccc23)CCO1 (stereo not shown) [Example 16],5.63
11,O=S(=O)(Nc1ccncn1)c1ccc2c(-c3ccc(C(F)(F)F)cc3C3=CCNCC3)cccc2c1 [Example 48],7.52
12,"O=S(=O)(Nc1ncns1)c1ccc2c(-c3ccc(Cl)cc3C(F)(F)F)nccc2c1 [Example 63, 1-(4-CHLORO-2-(TRIFLUOROMETHYL)PHENYL)-N-(1,2,4-THIADIAZOL-5-YL)ISOQUINOLINE-6-SULFONAMIDE]",6.48
13,O=S(=O)(Nc1ncns1)c1ccc2c(N3CCOC(c4ccccc4)C3)cccc2c1 (racemic) [Example 14 (mixture of isomers)],6.52

# Same assay, conditions: 293 cells stably transfected with Nav 1.7; second part of table; read-out: Nav1.7 IWQ IC50 IP
row,Structure (SMILES),pIC50
1,"COc1cc(C(F)(F)F)ccc1-c1nccc2cc(S(=O)(=O)Nc3ccncn3)cnc12 [Example 292, 8-(2-METHOXY-4-(TRIFLUOROMETHYL)PHENYL)-N-(PYRIMIDIN-4-YL)-1,7-NAPHTHYRIDINE-3-SULFONAMIDE]",5.40
2,"O=S(=O)(Nc1ccncn1)c1ccc2c(OCc3cccnc3)nccc2c1 [Example 128, 1-(PYRIDIN-3-YLMETHOXY)-N-(PYRIMIDIN-4-YL)ISOQUINOLINE-6-SULFONAMIDE]",5.40
3,"O=S(=O)(Nc1ccncn1)c1ccc2c(OCCn3cccc3)nccc2c1 [Example 303, 1-(2-(1H-PYRROL-1-YL)ETHOXY)-N-(PYRIMIDIN-4-YL)ISOQUINOLINE-6-SULFONAMIDE]",< 5.00
4,"O=S(=O)(Nc1ccncn1)c1ccc2c(OCCCc3cn[nH]c3C(F)(F)F)nccc2c1 [Example 302, N-(PYRIMIDIN-4-YL)-1-(3-(5-(TRIFLUOROMETHYL)-1H-PYRAZOL-4-YL)PROPOXY)ISOQUINOLINE-6-SULFONAMIDE]",< 5.00
5,Cc1ccc2c(cnn2C)c1-c1nccc2cc(S(=O)(=O)Nc3ccncn3)ccc12 [Example 309],< 5.00
6,"O=S(=O)(Nc1ccncn1)c1ccc2c(-c3cccc4cccnc34)nccc2c1 [Example 310, N-(PYRIMIDIN-4-YL)-1-(QUINOLIN-8-YL)ISOQUINOLINE-6-SULFONAMIDE]",< 5.00
7,"COc1c(-c2nccc3cc(S(=O)(=O)Nc4ccncn4)ccc23)cccc1C(F)(F)F [Example 152, 1-(2-METHOXY-3-(TRIFLUOROMETHYL)PHENYL)-N-(PYRIMIDIN-4-YL)ISOQUINOLINE-6-SULFONAMIDE]",5.17
8,"O=S(=O)(Nc1ccncn1)c1ccc2c(OCc3cc4n(n3)CCCO4)nccc2c1 [Example 297, 1-((6,7-DIHYDRO-5H-PYRAZOLO[5,1-B][1,3]OXAZIN-2-YL)METHOXY)-N-(PYRIMIDIN-4-YL)ISOQUINOLINE-6-SULFONAMIDE]",< 5.00
9,Cc1cc2c(cnn2C)cc1-c1nccc2cc(S(=O)(=O)Nc3ccncn3)ccc12 [Example 308],< 5.00
10,"Cn1ccc2cccc(-c3nccc4cc(S(=O)(=O)Nc5ccncn5)ccc34)c21 [Example 164, 1-(1-METHYL-1H-INDOL-7-YL)-N-(PYRIMIDIN-4-YL)ISOQUINOLINE-6-SULFONAMIDE]",5.18
11,"COc1c(F)cccc1-c1nccc2cc(S(=O)(=O)Nc3ccncn3)ccc12 [Example 157, 1-(3-FLUORO-2-METHOXYPHENYL)-N-(PYRIMIDIN-4-YL)ISOQUINOLINE-6-SULFONAMIDE]",5.19
12,"COc1nccc(NS(=O)(=O)c2ccc3c(-c4ccc(C(F)(F)F)cc4OC)nccc3c2)n1 [Example 313, 1-(2-METHOXY-4-(TRIFLUOROMETHYL)PHENYL)-N-(2-METHOXYPYRIMIDIN-4-YL)ISOQUINOLINE-6-SULFONAMIDE]",< 5.00
13,Cc1cc(C#N)ccc1-c1nccc2cc(S(=O)(=O)Nc3ccncn3)ccc12 [Example 159],5.32
14,N#Cc1cccc2cc(S(=O)(=O)Nc3ncns3)ccc12 [Example 317],< 5.00

# Same assay, conditions: at […]
row,Structure (SMILES),Nav1.7 Single Point Data IWQ (at […]) (%)
1,"COc1cc(C(=O)CCCCO)ccc1-c1nccc2cc(S(=O)(=O)Nc3ccncn3)ccc12 [Example 463, 1-(4-(5-HYDROXYPENTANOYL)-2-METHOXYPHENYL)-N-(PYRIMIDIN-4-YL)ISOQUINOLINE-6-SULFONAMIDE]",41.1%
2,"COc1cc(C(F)(F)F)ccc1-c1nccc2cc(S(=O)(=O)n3ccc(N)n3)ccc12 [Example 390, 1-((1-(2-METHOXY-4-(TRIFLUOROMETHYL)PHENYL)ISOQUINOLIN-6-YL) SULFONYL)-1H-PYRAZOL-3-AMINE]",19.8%
3,"O=S(=O)(Nc1ccncn1)c1ccc2c(OCCn3cccc3)nccc2c1 [Example 303, 1-(2-(1H-PYRROL-1-YL)ETHOXY)-N-(PYRIMIDIN-4-YL)ISOQUINOLINE-6-SULFONAMIDE]",40%
4,"COc1cc(C(F)F)c(F)cc1-c1ncnc2cc(S(=O)(=O)NC3=NCCS3)ccc12 [Example 519, 4-(4-(DIFLUOROMETHYL)-5-FLUORO-2-METHOXYPHENYL)-N-(4,5-DIHYDROTHIAZOL-2-YL)QUINAZOLINE-7-SULFONAMIDE]",<20%
5,"O=S(=O)(Nc1ccncn1)c1ccc2c(OCCCc3cn[nH]c3C(F)(F)F)nccc2c1 [Example 302, N-(PYRIMIDIN-4-YL)-1-(3-(5-(TRIFLUOROMETHYL)-1H-PYRAZOL-4-YL)PROPOXY)ISOQUINOLINE-6-SULFONAMIDE]",20%
6,"COc1cc(C(F)(F)F)ccc1-c1nccc2cc(S(=O)(=O)Nc3cnncn3)ccc12 [Example 391, 1-(2-METHOXY-4-(TRIFLUOROMETHYL)PHENYL)-N-(1,2,4-TRIAZIN-5-YL)ISOQUINOLINE-6-SULFONAMIDE]",34.8%
7,Cc1ccc2c(cnn2C)c1-c1nccc2cc(S(=O)(=O)Nc3ccncn3)ccc12 [Example 309],27%
8,"O=S(=O)(Nc1ccncn1)c1ccc2c(-c3cccc4cccnc34)nccc2c1 [Example 310, N-(PYRIMIDIN-4-YL)-1-(QUINOLIN-8-YL)ISOQUINOLINE-6-SULFONAMIDE]",46%
9,"COc1cc(-c2ccncc2)ccc1-c1nccc2cc(S(=O)(=O)Nc3ccncn3)ccc12 [Example 451, 1-(2-METHOXY-4-(PYRIDIN-4-YL)PHENYL)-N-(PYRIMIDIN-4-YL)ISOQUINOLINE-6-SULFONAMIDE]",27.5%
10,"O=S(=O)(Nc1nccs1)c1ccc2c(N3CCCCC3c3ccccc3)ncnc2c1 (stereo not shown) [Example 538, 4-(2-PHENYLPIPERIDIN-1-YL)-N-(THIAZOL-2-YL)QUINAZOLINE-7-SULFONAMIDE]",31.2%
11,"COc1cc(C(F)(F)F)ccc1-c1nccc2cc(S(=O)(=O)Nc3cc(C(F)(F)F)ncn3)ccc12 [Example 496, 1-(2-METHOXY-4-(TRIFLUOROMETHYL)PHENYL)-N-(6-(TRIFLUOROMETHYL)PYRIMIDIN-4-YL)ISOQUINOLINE-6-SULFONAMIDE]",24.7%
12,"CC(C)(C#N)c1ccccc1-c1nccc2cc(S(=O)(=O)Nc3nccs3)ccc12 [Example 385, 1-(2-(2-CYANOPROPAN-2-YL)PHENYL)-N-(THIAZOL-2-YL)ISOQUINOLINE-6-SULFONAMIDE]",25.3%
13,"O=S(=O)(Nc1ccncn1)c1ccc2c(OCc3cc4n(n3)CCCO4)nccc2c1 [Example 297, 1-((6,7-DIHYDRO-5H-PYRAZOLO[5,1-B][1,3]OXAZIN-2-YL)METHOXY)-N-(PYRIMIDIN-4-YL)ISOQUINOLINE-6-SULFONAMIDE]",38%
14,Cc1cc2c(cnn2C)cc1-c1nccc2cc(S(=O)(=O)Nc3ccncn3)ccc12 [Example 308],45%
15,"Cc1noc(C)c1-c1nccc2cc(S(=O)(=O)Nc3ccncn3)ccc12 [Example 311, 1-(3,5-DIMETHYLISOXAZOL-4-YL)-N-(PYRIMIDIN-4-YL)ISOQUINOLINE-6-SULFONAMIDE]",29%
16,Cc1nsc(NS(=O)(=O)c2ccc3c(-c4ccc(Cl)cc4C)nccc3c2)n1 [Example 356],27%
17,"Cc1cnc(OC2CCCN(C)C2)c(-c2nccc3cc(S(=O)(=O)Nc4ccncn4)ccc23)c1 (stereo not shown) [Example 383, 1-(5-METHYL-2-((1-METHYLPIPERIDIN-3-YL)OXY)PYRIDIN-3-YL)-N-(PYRIMIDIN-4-YL)ISOQUINOLINE-6-SULFONAMIDE]",30.2%
18,"COc1nccc(NS(=O)(=O)c2ccc3c(-c4ccc(C(F)(F)F)cc4OC)nccc3c2)n1 [Example 313, 1-(2-METHOXY-4-(TRIFLUOROMETHYL)PHENYL)-N-(2-METHOXYPYRIMIDIN-4-YL)ISOQUINOLINE-6-SULFONAMIDE]",39%
19,"Cc1cnc(OC[C@@H]2CCOC2)c(-c2nccc3cc(S(=O)(=O)Nc4nccs4)ccc23)c1 [Example 387, (R)-1-(5-METHYL-2-((TETRAHYDROFURAN-3-YL)METHOXY)PYRIDIN-3-YL)-N-(THIAZOL-2-YL)ISOQUINOLINE-6-SULFONAMIDE]",20.6%
20,N#Cc1cccc2cc(S(=O)(=O)Nc3ncns3)ccc12 [Example 317],30%
21,"O=S(=O)(Nc1ccncn1)c1ccc2c(-c3ccc(N4CCCCC4)c(F)c3F)nccc2c1 [Example 432, 1-(2,3-DIFLUORO-4-(PIPERIDIN-1-YL)PHENYL)-N-(PYRIMIDIN-4-YL)ISOQUINOLINE-6-SULFONAMIDE]",34.6%
22,"O=S(=O)(Nc1nccs1)c1ccc2c(N3CCCC3c3ccccc3)ncnc2c1 (stereo not shown) [Example 537, 4-(2-PHENYLPYRROLIDIN-1-YL)-N-(THIAZOL-2-YL)QUINAZOLINE-7-SULFONAMIDE]",41.2%
